Results taken from US10961211B2, “Isotopically-stabilized tetronimide compounds” (Midwestern University, priority 2019, dated 2021).

Assay: LCMS analysis of deuterium/hydrogen exchange in solution
Type: physicochemical
Settings: NMR sample in dmso-d6, standing at room temperature
Procedure: A sample of rac-1 (440 mg, 1.07 mmol) was stirred in THF (10 mL) in the presence of K2CO3 (645 mg, 4.69 mmol; 4.4 eq.) and D2O (1.77 g, 88.5 mmol; 82.6 eq.) at room temperature. The reaction progress was monitored by LCMS and Mass analysis. After 9 days a sample was taken and concentrated under reduced pressure to give 96-100% pure (LCMS, UV 215 and 254 nm respectively) racemic 1-d3 (38.9 mg) according to ^1H-NMR analysis. […] Calcd. for C18H11D3F3NO5S M: 416.39

deuterium/hydrogen exchange (isotopic stability): deuterium loss took place in dmso-d6
Structure (SMILES): NC1=C(OS(=O)(=O)Cc2ccccc2)C(=O)C(c2ccc(C(F)(F)F)cc2)O1 (racemic) [Compound 1-d3, 2-amino-4-oxo-5-(4-(trifluoromethyl)phenyl)-4,5-dihydrofuran-3-yl phenylmethanesulfonate]
